Measurements published in US10086045B2, “Methods of treatment using stem cell mobilizers” (THE JOHNS HOPKINS UNIVERSITY, priority 2010, dated 2018).

B1: G-CSF: granulocyte colony stimulating factor, stem cell mobilizer (protein, UniProt P09919 31-207, looked up)
Granulocyte …: TPLGPASSLPQSFLLKCLEQVRKIQGDGAALQEKLVSECATYKLCHPEELVLLGHSLGIPWAPLSSCPSQALQLAGCLSQLHSGLFLYQGLLQALEGISPELGPTLDTLQLDVADFATTIWQQMEELGMAPALQPTQGAMPAFASAFQRRAGGVLVASHLQSFLEVSYRVLRHLAQP

What was measured:
C57BL/6 mice = assay: Rodent model of acute liver failure: CCl4 dose finding (survival, serum transaminases); format: in vivo
Protocol: FIG. 1A-1C describes mortality and hepatic injury after injection of carbon tetrachloride (CCl4). FIG. 1A is a graph showing percent survival over four days among groups (n=10) of mice administered intraperitoneal injections of CCL4 at doses of 2 ml/kg (solid line), 3 ml/kg (dashed line), 4 ml/kg (diamond markers), or 4.5 ml/kg (circle markers). FIG. 1B is a graph displaying peak liver function test (LF) results, specifically, serum aspartate transaminase (AST) (dark bars) and alanine transaminase (ALT) (light bars) levels in mice (n=2) 24 hrs and 96 hrs after intraperitoneal injection of CCL4 at 4 ml/kg compared to baseline levels in uninjected animals (0 hrs).
Rodent models of Acute Liver Failure.
The large majority of animals in this group were transiently ill but rapidly regained vigor. […] A dose of 4 ml/kg would result in about 60% to 100% mortality among the animals over the course of three to seven days. Slight adjustments in the dose (i.e., 4.5 ml/kg) at this level would have obvious effects on mortality with all animals succumbing within 24-48 hours.
A dose of 4 ml/kg was eventually selected for the final model. Mortality with this dose was typically about 80% around five days and was preceded by a significant elevation in serum transaminases. AST and ALT levels peaked at approximately 5,000 on day one to two after injury (FIG. 1B).

[1] = test system: CD34+ HSCs / peripheral white blood cells; assay: HSC mobilization in rats, flow cytometric analysis of peripheral blood; format: in vivo; settings: for peripheral CD34+ absolute count / total lymphocyte count: single dose; for average total WBC: single sc dose (plerixafor 2 mg/kg, G-CSF 300 μg/kg), n=3
Protocol: Rats (n=3 per treatment group) were administered a single dose of plerixafor (2 mg/kg), G-CSF (300 μg/kg) or both. In FIG. 2A, peripheral total white blood cell (WBC) count, total lymphocytes, and CD34^+ cells were measured in […] by FACS analysis at 1 hr and 6 hrs after injection. […] See Mozobil (plerixafor injection) Product Monograph 2009 (Genzyme Corporation, Cambridge, Mass.).
Mobilization of HSCs. For HSC mobilization, plerixafor and G-CSF were administered by subcutaneous injection at weight-based doses consistent with those that have proven effective in human clinical trials or as has been used previously by the present inventors (plerixafor, 2 mg/kg/dose; G-CSF 300 μg/kg/dose). Plerixafor and G-CSF were administered 12-hours following CCl4 injection, in treatment groups comprised of eight to ten animals. Control treatment groups were administered an injection with an equivalent volume of saline.
Flow Cytometric Analysis of Peripheral Blood. Following HSC mobilization, animals were sacrificed at either one or six hours post treatment and blood was collected. Leukocyte suspensions (1×10^6) of peripheral blood were analyzed for CD34, Thy-1 and c-Kit expression. Nonspecific antibody binding was blocked with mouse and donkey serum (Sigma) for 30 minutes. The cells were incubated with Alexa Fluor 647 conjugated mouse anti-rat CD34 (1:10) (Santa Cruz Biotechnology), fluorescein isothiocyanate (FITC)-conjugated mouse anti-rat CD90 (Thy-1, 1:100) (BD Pharmingen), and rabbit anti-rat c-Kit (1:100) (Santa Cruz Biotechnology) for 45 minutes at 4° C., followed by phycoerythrin (PE)-conjugated donkey anti-rabbit IgG (1:200) (eBioscience) for 30 minutes at 4° C. The CD34, Thy-1 and c-Kit positive cells were counted by flow cytometry using CELLQuest software (Becton-Dickinson).

CD34+ cells / HSCs = settings: healthy volunteers; cited from earlier work
CXCR4 receptor = settings: mutated receptor (not named); cited from earlier work
[2] = test system: CD34+ stem cells in peripheral blood; settings: pigs
Protocol: The dosage of plerixafor used in swine transplants was based on the experiments in rats. It is possible that the effective dosage of plerixafor will differ among species. The efficacy of plerixafor was tested in non-transplanted pigs and blood cell count and flow cytometric analysis were used to measure CD34^+ stem cells in peripheral blood.

[3] = test system: human immunodeficiency virus (HIV); settings: cited from earlier work
[4] = CCl4 4 ml/kg, day one to two after injury

Row | Molecule | mortalities per ten animals (C57BL/6 mice; CCl4 2 ml/kg intraperitoneal, within first one to two days) | mortality (C57BL/6 mice; CCl4 4 ml/kg, around five days) | peak serum ALT level (C57BL/6 mice; [4]) | peak serum AST level (C57BL/6 mice; [4]) | time within which all animals succumbed (C57BL/6 mice; CCl4 4.5 ml/kg) [h] | peripheral CD34+ absolute count ([1]; one hour) [cells/ml] | total lymphocyte count ([1]; one hour) | peripheral CD34+ absolute count ([1]; six hours) [cells/ml] | total lymphocyte count ([1]; six hours) | average total WBC ([1]; 1 hour) | average total WBC ([1]; 6 hours) | mobilization of HSCs to the periphery (CD34+ cells / HSCs) | affinity of mutated receptor relative to affinity in CXCR4 (CXCR4 receptor) [fold] | increase in affinity after introduction of Glu at VII:06 and removal of Lys at VII:02 (CXCR4 receptor) [fold] | time of peak CD34+ cell levels ([2]; after subcutaneous injection) [h] | difference in number of CD34+ cells between 1 mg/kg and 2 mg/kg ([2]; at 2, 3 and 6 hours after injection) | absolute number of CD34+ cells per ml blood ([2]; subcutaneous injection, time-dependent) | anti-HIV efficacy in vivo [3]
1 | ClC(Cl)(Cl)Cl [CCL4, carbon tetrachloride] | one or two | about 80% | approximately 5,000 | approximately 5,000 | 24 to 48 |  |  |  |  |  |  |  |  |  |  |  |  | 
2 | c1cc(CN2CCCNCCNCCCNCC2)ccc1CN1CCCNCCNCCCNCC1 [plerixafor, 1,1′-[1,4-phenylenebis(methylene)]bis-1,4,8,11-tetraazacyclo-tetradecane] |  |  |  |  |  | 333 | 4,400 | 135 | 4,800 | 6,100 | 7,300 | massive mobilization | ≤ 10 | 1000 | 3 | no significant difference | significantly increased | not an effective anti-HIV agent
3 | B1 |  |  |  |  |  | 216 | 2,000 | 238 | 4,100 | 3,300 | 7,800 |  |  |  |  |  |  | 
